# Experimental data: patent US8497289B2, “3.1.0 bicyclic GlyT1 inhibitors and methods of making and using same” (Vanderbilt University, priority 2008, dated 2013)
# Target: T1, GlyT1 (Homo sapiens, UniProt P48067)
# T1 construct: Human placental choriocarcinoma cells endogenously expressing GlyT1; host or cells: JAR cells (human placental choriocarcinoma)
# T1 sequence (P48067 1-706): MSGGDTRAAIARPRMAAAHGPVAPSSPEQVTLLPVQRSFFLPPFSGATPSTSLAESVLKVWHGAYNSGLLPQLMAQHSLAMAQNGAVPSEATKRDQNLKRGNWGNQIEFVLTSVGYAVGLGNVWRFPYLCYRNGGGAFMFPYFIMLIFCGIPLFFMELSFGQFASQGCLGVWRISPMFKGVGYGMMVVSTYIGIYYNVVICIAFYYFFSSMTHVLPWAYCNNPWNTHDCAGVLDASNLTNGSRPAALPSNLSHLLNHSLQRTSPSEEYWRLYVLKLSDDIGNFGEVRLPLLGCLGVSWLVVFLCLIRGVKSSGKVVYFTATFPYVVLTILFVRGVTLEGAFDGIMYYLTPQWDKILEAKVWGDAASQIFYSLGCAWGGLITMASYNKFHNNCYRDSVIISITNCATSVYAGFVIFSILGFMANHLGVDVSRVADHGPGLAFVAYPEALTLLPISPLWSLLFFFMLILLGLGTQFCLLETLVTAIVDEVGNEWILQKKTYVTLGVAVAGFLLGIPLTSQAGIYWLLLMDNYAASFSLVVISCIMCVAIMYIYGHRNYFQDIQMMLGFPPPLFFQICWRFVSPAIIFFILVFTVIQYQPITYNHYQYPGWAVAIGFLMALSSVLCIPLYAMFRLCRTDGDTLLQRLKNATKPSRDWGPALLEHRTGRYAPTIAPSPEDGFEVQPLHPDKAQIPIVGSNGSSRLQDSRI
# Test: [14C]-glycine uptake in JAR cells (scintillation proximity, Cytostar T plates)
# Format: cell-based
# Conditions: read-out: Potency
# Protocol: Human placental choriocarcinoma cells endogenously expressing GlyT1 can be cultured using standard conditions. Cells can then be grown at 37° C. in a humidified atmosphere 40-48 hours before the assay. Culture medium can be removed from the culture plate, and cells can be incubated with an amount of TB1A buffer with or without the compounds of the present invention for a sufficient period of time. Then an amount of [^14C]-glycine diluted with TB1A can be added to each well. After incubation the microplates can be sealed and counted. Non-specific uptake of [^14C]-glycine can be determined in the presence of unlabeled glycine. To determine potencies, a range of concentrations of the compounds of the present invention can be added to the cells, followed by the fixed concentration of [^14C]-glycine. The concentration of the present compound that inhibited half of the specific uptake of [^14C]glycine (IC50 value) can be determined from the assay data by non-linear curve fitting.
# The procedure used was analogous to that disclosed in Williams, J. B.; Mallorga P. J.; Lemaire W.; Williams D. L.; Na S.; Patel S.; Conn J. P.; Pettibone D. J.; Austin C.; Sur C.; “Development of a scintillation proximity assay for analysis of Na+/Cl−-dependent neurotransmitter transporter activity,” ANAL. BIOCHEM.
# Cells were plated at a density of 1.3×10^4 cells/well and grown at 37° C. in a humidified atmosphere of 5% CO2 for 40-48 h. Culture medium was removed from the Cytostar T plate and JAR cells were incubated with 30 μl of TB1A buffer (120 mM NaCl, 2 mM KCl, 1 mM CaCl2, 1 mM MgCl2, 10 mM Hepes, 5 mM L-alanine, pH 7.5 adjusted with 1 M Tris base) with or without multiple concentrations of test compound (added at 2× final concentration) for 1 min. Then 30 μl of [^14C]-glycine (Perkin-Elmer) diluted in TB1A was added to each well to give a final concentration of 10 μM. Cytostar T plates were then incubated in the dark at room temperature for 3 h, sealed with opaque white bottom plate seals (Perkin-Elmer) and clear top plate seals (Topseal A, Perkin-Elmer), and were counted on a Top Count (Packard). Glycine uptake was determined by measuring radioactivity in each well and plotted as a function of concentration of test compound. […] Nonspecific uptake of [^14C]-glycine was determined in the presence of 10 mM cold glycine. [^14C]-taurine (American Radiolabeled Chemicals, Inc.) uptake experiments were performed according to the same protocol except that 10 mM cold taurine was used to determine nonspecific uptake. […] COS-7 cells were transiently transfected with the human GlyT2 cDNA (Origene Technologies Inc., SC303452) using Fugene 6 (Roche) according to the manufacturer's instructions in Dulbecco's modified Eagle's medium (DMEM, Invitrogen) containing 10% Fetal Bovine Serum, 10 mM HEPES, 1 mM sodium pyruvate, penicillin (100 μg/ml), and streptomycin (100 μg/ml). The following day, the cells were plated at a density of 5×10^5 cells/well in Cytostar T plates and maintained at 37° C. in a humidified atmosphere of 5% CO2 for 24 h. GlyT2 glycine uptake experiments were performed according to the same protocol previously described.
row,SMILES,IC50
1,"Cn1cnc(S(=O)(=O)N2CC3C(C2)C3(CNC(=O)c2ccc(Cl)cc2Cl)CC2CC2)c1 (stereo not drawn) [Compound 6a, 2,4-dichloro-N-((6-(cyclopropylmethyl)-3-(1-methyl-1H-imidazol-4-ylsulfonyl)-3-azabicyclo[3.1.0]hexan-6-yl)methyl)benzamide]",4.1 nM
2,Cn1cnc(S(=O)(=O)N2CC3C(C2)C3(CNC(=O)c2ccccc2Cl)CC2CC2)c1 (stereo not drawn) [Compound 6b],18.6 nM
3,Cn1cnc(S(=O)(=O)N2CC3C(C2)C3(CNC(=O)c2ccc(Cl)cc2)CC2CC2)c1 (stereo not drawn) [Compound 6c],32 nM
4,Cn1cnc(S(=O)(=O)N2CC3C(C2)C3(CNC(=O)c2ccc(Cl)c(Cl)c2)CC2CC2)c1 (stereo not drawn) [Compound 6d],82 nM
5,Cn1cnc(S(=O)(=O)N2CC3C(C2)C3(CNC(=O)c2c(F)cccc2F)CC2CC2)c1 (stereo not drawn) [Compound 6e],4 nM
6,Cn1cnc(S(=O)(=O)N2CC3C(C2)C3(CNC(=O)c2ccccc2C(F)(F)F)CC2CC2)c1 (stereo not drawn) [Compound 6f],5 nM
7,Cn1cnc(S(=O)(=O)N2CC3C(C2)C3(CNC(=O)c2cccc(C(F)(F)F)c2)CC2CC2)c1 (stereo not drawn) [Compound 6g],64 nM
8,Cn1cnc(S(=O)(=O)N2CC3C(C2)C3(CNC(=O)c2ccc(F)cc2F)CC2CC2)c1 (stereo not drawn) [Compound 6h],44 nM
9,Cn1cnc(S(=O)(=O)N2CC3C(C2)C3(CNC(=O)c2cc(Cl)cc(Cl)c2)CC2CC2)c1 (stereo not drawn) [Compound 6i],100 nM
10,Cn1cnc(S(=O)(=O)N2CC3C(C2)C3(CNC(=O)c2cccc(Cl)c2)CC2CC2)c1 (stereo not drawn) [Compound 6j],119 nM
11,CCS(=O)(=O)N1CC2C(C1)C2(CNC(=O)c1ccc(Cl)cc1Cl)CC1CC1 (stereo not drawn) [Compound 8a],1300 nM
12,CCCS(=O)(=O)N1CC2C(C1)C2(CNC(=O)c1ccc(Cl)cc1Cl)CC1CC1 (stereo not drawn) [Compound 8b],361 nM
13,CC(C)S(=O)(=O)N1CC2C(C1)C2(CNC(=O)c1ccc(Cl)cc1Cl)CC1CC1 (stereo not drawn) [Compound 8c],3400 nM
14,"O=C(NCC1(CC2CC2)C2CN(S(=O)(=O)CC3CC3)CC21)c1ccc(Cl)cc1Cl (stereo not drawn) [Compound 8d, 2,4-Dichloro-N-((6-(cyclopropylmethyl)-3-(cyclopropylmethylsulfonyl)-3-azabicyclo[3.1.0]hexan-6-yl)methyl)benzamide]",231 nM
15,CCCS(=O)(=O)N1CC2C(C1)C2(CNC(=O)c1ccccc1F)CC1CC1 (stereo not drawn) [Compound 9a],2100 nM
16,CCCS(=O)(=O)N1CC2C(C1)C2(CNC(=O)c1ccccc1Cl)CC1CC1 (stereo not drawn) [Compound 9b],1200 nM
17,CCCS(=O)(=O)N1CC2C(C1)C2(CNC(=O)c1ccc(Cl)cc1)CC1CC1 (stereo not drawn) [Compound 9c],1850 nM
18,CCCS(=O)(=O)N1CC2C(C1)C2(CNC(=O)c1cccc(C(F)(F)F)c1)CC1CC1 (stereo not drawn) [Compound 9d],4500 nM
19,CCCS(=O)(=O)N1CC2C(C1)C2(CNC(=O)c1ccc(C(F)(F)F)cc1)CC1CC1 (stereo not drawn) [Compound 9e],1100 nM
20,CCCS(=O)(=O)N1CC2C(C1)C2(CNC(=O)c1ccc(F)cc1Cl)CC1CC1 (stereo not drawn) [Compound 9f],507 nM
21,O=C(NCC1(CC2CC2)C2CN(S(=O)(=O)CC3CC3)CC21)c1ccccc1C(F)(F)F (stereo not drawn) [Compound 9g],688 nM
22,O=C(NCC1(CC2CC2)C2CN(S(=O)(=O)CC3CC3)CC21)c1ccc(C(F)(F)F)cc1 (stereo not drawn) [Compound 9h],629 nM
23,O=C(NCC1(CC2CC2)C2CN(S(=O)(=O)CC3CC3)CC21)c1ccc(F)cc1F (stereo not drawn) [Compound 9i],1020 nM
24,O=C(NCC1(CC2CC2)C2CN(S(=O)(=O)CC3CC3)CC21)c1c(F)cccc1F (stereo not drawn) [Compound 9j],1020 nM

# Now from value to compound:
row,IC50,SMILES
1,> 20000 nM,CS(=O)(=O)N1CC2C(C1)C2(CNC(=O)c1ccc(Cl)cc1Cl)c1ccccn1 (stereo not drawn) [Compound 12a]
2,> 20000 nM,CCS(=O)(=O)N1CC2C(C1)C2(CNC(=O)c1ccc(Cl)cc1Cl)c1ccccn1 (stereo not drawn) [Compound 12b]
3,> 20000 nM,CCCS(=O)(=O)N1CC2C(C1)C2(CNC(=O)c1ccc(Cl)cc1Cl)c1ccccn1 (stereo not drawn) [Compound 12c]
4,240 nM,"Cn1cnc(S(=O)(=O)N2CC3C(C2)C3(CNC(=O)c2ccc(Cl)cc2Cl)c2ccccn2)c1 (stereo not drawn) [Compound 12d, 2,4-dichloro-N-((3-(1-methyl-1H-imidazol-4-ylsulfonyl)-6-(pyridine-2-yl)-3-azabicyclo[3.1.0]hexan-6-yl)methyl)benzamide]"
5,> 20000 nM,Cn1cc(S(=O)(=O)N2CC3C(C2)C3(CNC(=O)c2ccc(Cl)cc2Cl)c2ccccn2)cn1 (stereo not drawn) [Compound 12e]
6,> 20000 nM,O=C(NCC1(c2ccccn2)C2CN(S(=O)(=O)c3ccccc3)CC21)c1ccc(Cl)cc1Cl (stereo not drawn) [Compound 12f]
7,> 20000 nM,O=C(NCC1(c2ccccn2)C2CN(S(=O)(=O)c3ccccn3)CC21)c1ccc(Cl)cc1Cl (stereo not drawn) [Compound 12g]
8,457 nM,Cn1cnc(S(=O)(=O)N2CC3C(C2)C3(CNC(=O)c2ccccc2Cl)c2ccccn2)c1 (stereo not drawn) [Compound 13a]
9,190 nM,"Cn1cnc(S(=O)(=O)N2CC3C(C2)C3(CNC(=O)c2ccccc2C(F)(F)F)c2ccccn2)c1 (stereo not drawn) [Compound 13b, 2-Trifluoromethyl-N-((6-(pyridin-2-yl)-3-(1-methyl-1H-imidazol-4-ylsulfonyl)-3-azabicyclo[3.1.0]hexan-6-yl)methyl)benzamide]"
